30 compounds from US7115658B2 (priority 2002, dated 2006) can be followed below.

Each structure is given as a SMILES string. Bounds are passed on as bounds.

T1 sequence (P26663 2420-3010): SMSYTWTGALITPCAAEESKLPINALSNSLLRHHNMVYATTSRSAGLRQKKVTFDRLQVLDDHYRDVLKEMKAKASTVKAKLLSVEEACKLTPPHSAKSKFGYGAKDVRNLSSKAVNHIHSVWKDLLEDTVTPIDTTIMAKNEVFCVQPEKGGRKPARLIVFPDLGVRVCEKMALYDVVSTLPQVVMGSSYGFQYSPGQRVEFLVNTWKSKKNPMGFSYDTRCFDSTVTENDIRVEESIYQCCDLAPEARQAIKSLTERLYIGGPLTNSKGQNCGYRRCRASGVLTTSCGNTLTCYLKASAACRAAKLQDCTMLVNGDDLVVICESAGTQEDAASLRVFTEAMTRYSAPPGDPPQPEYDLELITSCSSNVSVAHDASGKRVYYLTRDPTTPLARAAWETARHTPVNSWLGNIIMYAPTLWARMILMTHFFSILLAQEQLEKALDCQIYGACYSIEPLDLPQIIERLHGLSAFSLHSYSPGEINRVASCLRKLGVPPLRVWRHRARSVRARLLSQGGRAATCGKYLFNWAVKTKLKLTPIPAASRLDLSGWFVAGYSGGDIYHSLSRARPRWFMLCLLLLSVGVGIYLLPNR

The test concerns the target T1, Recombinant HCV polymerase (Hepatitis C virus genotype 1b, UniProt P26663).
T1 construct: 2.5 pmoles (0.15 μg) HCV polymerase protein
Kind of test: HCV Polymerase Inhibition Assay. The format is biochemical. The settings on record: primer/template-directed transcription, 30 minutes at 30° C.; category symbol. How it is done:
The above-described compounds were tested for activity with HCV polymerase. Recombinant HCV polymerase was tested for its ability to perform primer/template-directed transcription in assays that contained 30 mM tris-HCl pH 7.2, 10 mM MgCl2, 20 mM NaCl, 1 mM Dithiothreitol (DTT), 0.05% Tween-20, 1% glycerol, 5 pmoles biotin-dG12 (primer), 0.5 pmoles poly(rC)300 (template), 1 μM GTP, 0.1–0.3 uCi α-^32P-GTP, and 2.5 pmoles (0.15 μg) HCV polymerase protein in a final volume of 75 μL. Reactions were initiated by addition of enzyme and incubated 30 minutes at 30° C. Reactions were stopped by addition of 33 mM EDTA, and polynucleotide products were collected by filtration through Diethylaminoethyl (DE) Filtermat papers (Wallac). Unincorporated triphosphate was removed by washing the filters with 5% dibasic sodium phosphate. The filters were counted in a Packard Tri-Lux Microbeta scintillation counter (Packard Bioscience, Meriden, Conn.). Compounds to be tested were added at various concentrations, e.g., 1 μm to 50 μm, from stocks in 10% DMSO-water (final DMSO is 1% in reaction).
IC50 values were estimated from the primary cpm data (collected in triplicate) using the formula: cpm (I)=cpm (no inhibitor)(1−([I]/([I]+IC50))). An IC50 value represents the concentration (in μM) of a compound that provides 50% inhibition of polymerase-directed transcription in the above assay. A percent inhibition value is expressed for a compound where it was impractical to calculate an IC50 value with available data. If the IC50 estimated by the above equation was less than 200 nM, it was recalculated using the following equation, which takes into account the enzyme concentration (30 nM) in the assay: cpm(I)=cpm(no inhibitor)(1−((((I+IC50+30e−9)−sqrt(((I+IC50+30e−9)^2)−4×30e−9×I)))/((2) (30e−9))). Curve fitting was performed using the program KaleidaGraph (Synergy Software, Reading, Pa.).
Consider `COc1ccc(CCC2(C3CCCC3)CC(=O)CC(=O)O2)cc1C` (stereo not drawn) [Example 29, 6-Cyclopentyl-6-[2-(4-methoxy-3-methyl-phenyl)-ethyl]-dihydro-pyran-2,4-dione], for which the 50% inhibitory concentration (IC50) fell in the range of 1 to 10 µM.

As to `COc1ccc(CCC2(C3CCCC3)CC(=O)CC(=O)O2)cc1F` (stereo not drawn) [Example 30, 6-Cyclopentyl-6-[2-(3-fluoro-4-methoxy-phenyl)-ethyl]-dihydro-pyran-2,4-dione], the IC50 was below 1 µM.

Turning to `O=C1CC(=O)OC(CCc2ccc(F)c(Cl)c2)(C2CCCC2)C1` (stereo not drawn) [Example 31, 6-[2-(3-Chloro-4-fluoro-phenyl)-ethyl]-6-cyclopentyl-dihydro-pyran-2,4-dione], the IC50 was 1 to 10 µM.

For the compound `O=C1CC(=O)OC(CCc2ccc3c(c2)OCCO3)(C2CCCC2)C1` (stereo not drawn) [Example 32, 6-Cyclopentyl-6-[2-(2,3-dihydro-benzo[1,4]dioxin-6-yl)-ethyl]-dihydro-pyran-2,4-dione], the IC50 was 1 to 10 µM.

For `CC(C)Oc1cccc(CCC2(C3CCCC3)CC(=O)CC(=O)O2)c1` (stereo not drawn) [Example 33, 6-Cyclopentyl-6-[2-(3-isopropoxy-phenyl)-ethyl]-dihydro-pyran-2,4-dione], the IC50 was in the range of 1 to 10 µM.

Turning to `COC1=CC(=O)OC(CCc2cccc(C(C)C)c2)(C2CCCC2)C1` (stereo not drawn) [Example 34, 6-Cyclopentyl-6-[2-(3-isopropyl)-ethyl]-4-methyoxy-5,6-dihydro-pyran-2-one], the IC50 was in the range of 10 to 50 µM.

Consider `Cc1cccc(CCC2(C3CCCC3)CC(=O)CC(=O)O2)c1` (stereo not drawn) [Example 36, 6-Cyclopentyl-6-(2-m-tolyl-ethyl)-dihydro-pyran-2,4-dione], for which the IC50 lay in the range of 10 to 50 µM.

As to `Cn1cccc(CCC2(C3CCCC3)CC(=O)CC(=O)O2)c1=O` (stereo not drawn) [Example 37, 6-Cyclopentyl-6-[2-(1-methyl-2-oxo-1,2-dihydro-pyridin-3-yl)-ethyl]-dihydro-pyran-2,4-dione], the IC50 was above 50 µM.

As for `COc1ccc(CCC2(C3CCCC3)CC(=O)CC(=O)O2)c(OC)c1` (stereo not drawn) [Example 38, 6-Cyclopentyl-6-[2-(2,4-dimethoxy-phenyl)-ethyl]-dihydro-pyran-2,4-dione], the IC50 lay in the range of 10 to 50 µM.

As to `COc1cc(OC)c(CCC2(C3CCCC3)CC(=O)CC(=O)O2)cc1Cl` (stereo not drawn) [Example 39, 6-[2-(5-chloro-2,4-dimethoxyphenyl)ethyl]-6-cyclopentyldihydro-2H-pyran-2,4(3H)-dione], the IC50 was below 1 µM.

Take `CC(C)c1ccc(CCC2(C3CCCC3)CC(=O)CC(=O)O2)cc1` (stereo not drawn) [Example 40, 6-Cyclopentyl-6-[2-(4-isopropyl-phenyl)-ethyl]-dihydro-pyran-2,4-dione]: the IC50 was 1 to 10 µM.

In the case of `CC(C)Oc1ccc(CCC2(C3CCCC3)CC(=O)CC(=O)O2)cc1` (stereo not drawn) [Example 41, 6-Cyclopentyl-6-[2-(4-isopropoxy-phenyl)-ethyl]-dihydro-pyran-2,4-dione], the half-inhibitory concentration (IC50) is 1 to 10 µM.

As for `CCOc1c(F)cc(CCC2(C3CCCC3)CC(=O)CC(=O)O2)cc1F` (stereo not drawn) [Example 42], the IC50 fell in the range of 1 to 10 µM.

Consider `COc1c(F)cc(CCC2(C3CCCC3)CC(=O)CC(=O)O2)cc1F` (stereo not drawn) [Example 43, 6-Cyclopentyl-6-[2-(3,5-difluoro-4-methoxy-phenyl)-ethyl]-dihydro-pyran-2,4-dione], for which the 50% inhibitory concentration (IC50) fell in the range of 1 to 10 µM.

As to `CCOc1ccc(CCC2(C3CCCC3)CC(=O)CC(=O)O2)cc1Cl` (stereo not drawn) [Example 44], the IC50 is below 1 µM.

`COc1ccc(Oc2cccc(CCC3(C4CCCC4)CC(O)=CC(=O)O3)c2)cc1` (stereo not drawn) [Example 45, 6-cyclopentyl-6-{2-[3-(4-methoxyphenoxy)phenyl]ethyl}-4-hydroxy-5,6-dihydro-2H-pyran-2-one]: the IC50 lay within 10 to 50 µM.

`O=C1C=C(O)CC(CCc2cc3ccccc3o2)(C2CCCC2)O1` (stereo not drawn) [Example 46, 6-[2-(1-benzofuran-2-yl)ethyl]-6-cyclopentyl-4-hydroxy-5,6-dihydro-2H-pyran-2-one]: the IC50 lay within 10 to 50 µM.

With `O=C1C=C(O)CC(CCc2ccc(Oc3ccccc3)cc2)(C2CCCC2)O1` (stereo not drawn) [Example 47, 6-cyclopentyl-6-[2-(4-phenoxyphenyl)ethyl]-4-hydroxy-5,6-dihydro-2H-pyran-2-one], the IC50 was 10 to 50 µM.

In the case of `Cc1noc(COc2ccc(CCC3(C4CCCC4)CC(O)=CC(=O)O3)cc2)n1` (stereo not drawn) [Example 48, 6-Cyclopentyl-6-(2-{4-[(3-methyl-1,2,4-oxadiazol-5-yl)methoxy]phenyl}ethyl)4-hydroxy-5,6-dihydro-2H-pyran-2-one], the IC50 lay within 10 to 50 µM.

For the compound `Cc1noc(C)c1COc1ccc(CCC2(C3CCCC3)CC(O)=CC(=O)O2)cc1` (stereo not drawn) [Example 49, 6-Cyclopentyl-6-(2-{4-[(3,5-dimethylisoxazol-4-yl)methoxy]phenyl}ethyl)-4-hydroxy-5,6-dihydro-2H-pyran-2-one], the IC50 is 10 to 50 µM.

Turning to `Cn1c(COc2ccc(CCC3(C4CCCC4)CC(O)=CC(=O)O3)cc2)nc2ccccc21` (stereo not drawn) [Example 50, 6-Cyclopentyl-6-(2-{4-[(1-methyl-1H-benzimidazol-2-yl)methoxy]phenyl}ethyl)-4-hydroxy-5,6-dihydro-2H-pyran-2-one], the IC50 lay in the range of 10 to 50 µM.

As for `O=C1C=C(O)CC(CCc2ccc(OCc3ccc(Cl)c(Cl)c3)cc2)(C2CCCC2)O1` (stereo not drawn) [Example 51, 6-Cyclopentyl-6-(2-{4-[(3,4-dichlorobenzyl)oxy]phenyl}ethyl)-4-hydroxy-5,6-dihydro-2H-pyran-2-one], the IC50 lay in the range of 10 to 50 µM.

Regarding `O=C1C=C(O)CC(CCc2ccc(OCc3ccc(C(F)(F)F)nc3)cc2)(C2CCCC2)O1` (stereo not drawn) [Example 52, 6-Cyclopentyl-6-[2-(4-{[6-(trifluoromethyl)pyridin-3-yl]methoxy}phenyl)ethyl]4-hydroxy-5,6-dihydro-2H-pyran-2-one], the IC50 lay in the range of 10 to 50 µM.

With `O=C1CC(=O)OC(CCc2ccc(Cl)c(Cl)c2)(C2CCCC2)C1` (stereo not drawn) [Example 53, 6-Cyclopentyl-6-[2-(3,4-dichloro-phenyl)-ethyl]-dihydro-pyran-2,4-dione], the IC50 was 1 to 10 µM.

As for `O=C1CC(=O)OC(CCc2ccc(F)c(F)c2)(C2CCCC2)C1` (stereo not drawn) [Example 54, 6-Cyclopentyl-6-[2-(3,4-difluoro-phenyl)-ethyl]-dihydro-pyran-2,4-dione], the half-inhibitory concentration (IC50) is 10 to 50 µM.

Take `CCCc1ccc(CCC2(C3CCCC3)CC(=O)CC(=O)O2)cc1` (stereo not drawn) [Example 55]: the IC50 lay within 1 to 10 µM.

Turning to `O=C1CC(=O)OC(CCc2ccc(OC3CCC3)c(F)c2)(C2CCCC2)C1` (stereo not drawn) [Example 56, 6-[2-(4-Cyclobutoxy-3-fluoro-phenyl)-ethyl]-6-cyclopentyl-dihydro-pyran-2,4-dione], the IC50 fell in the range of 1 to 10 µM.

For `O=C1CC(=O)OC(CCc2ccc(OCC3CC3)c(F)c2)(C2CCCC2)C1` (stereo not drawn) [Example 57, 6-Cyclopentyl-6-[2-(4-cyclopropylmethoxy-3-fluoro-phenyl)-ethyl]-dihydro-pyran-2,4-dione], the IC50 fell in the range of 1 to 10 µM.

For the compound `COc1ccc(OCC2(C3CCCC3)CC(=O)CC(=O)O2)cc1` (stereo not drawn) [Example 58, 6-Cyclopentyl-6-(4-methoxy-phenoxymethyl)-dihydro-pyran-2,4-dione], the IC50 was above 50 µM.

With `CC(=O)c1ccc(CCC2(C3CCCC3)CC(=O)CC(=O)O2)cc1F` (stereo not drawn) [Example 59, 6-[2-(4-Acetyl-3-fluoro-phenyl)-ethyl]-6-cyclopentyl-dihydro-pyran-2,4-dione], the IC50 lay in the range of 1 to 10 µM.
